US10323022B2, “Pyrrolidinyl urea, pyrrolidinyl thiourea and pyrrolidinyl guanidine compounds as TrkA kinase inhibitors” (Array BioPharma Inc., priority 2011, dated 2019)

biological target: TrkA (Homo sapiens (Human), UniProt P04629); test: TrkA Omnia Assay; format: biochemical; conditions: averaged IC50; 20 nM enzyme, 500 μM ATP, 10 μM peptide substrate
Method: Trk enzymatic selectivity was assessed using Omnia™ Kinase Assay reagents from Invitrogen Corp. Enzyme (TrkA from Invitrogen Corp.) and test compound (various concentrations) were incubated for 10 minutes at ambient temperature in a 384-well white polypropylene plate (Nunc catalog#267462). Omnia Tyr Peptide #4, as well as ATP, were then added to the plate. Final concentrations were as follows: 20 nM enzyme, 500 μM of ATP, 10 μM peptide substrate. The assay buffer consisted of 25 mM MOPS pH 7.5, 0.005% (v/v) Triton X-100 and 5 mM MgCl2. The production of phosphorylated peptide was monitored continuously for 70 minutes using a Molecular Devices FlexStation II^384 microplate reader (excitation=360 nm; emission=485 nm). Initial rates were calculated from the progress curves. IC50 values were calculated from these rates using either a 4 or 5-parameter logistic curve fit.

Chain of TrkA (P04629 33-796): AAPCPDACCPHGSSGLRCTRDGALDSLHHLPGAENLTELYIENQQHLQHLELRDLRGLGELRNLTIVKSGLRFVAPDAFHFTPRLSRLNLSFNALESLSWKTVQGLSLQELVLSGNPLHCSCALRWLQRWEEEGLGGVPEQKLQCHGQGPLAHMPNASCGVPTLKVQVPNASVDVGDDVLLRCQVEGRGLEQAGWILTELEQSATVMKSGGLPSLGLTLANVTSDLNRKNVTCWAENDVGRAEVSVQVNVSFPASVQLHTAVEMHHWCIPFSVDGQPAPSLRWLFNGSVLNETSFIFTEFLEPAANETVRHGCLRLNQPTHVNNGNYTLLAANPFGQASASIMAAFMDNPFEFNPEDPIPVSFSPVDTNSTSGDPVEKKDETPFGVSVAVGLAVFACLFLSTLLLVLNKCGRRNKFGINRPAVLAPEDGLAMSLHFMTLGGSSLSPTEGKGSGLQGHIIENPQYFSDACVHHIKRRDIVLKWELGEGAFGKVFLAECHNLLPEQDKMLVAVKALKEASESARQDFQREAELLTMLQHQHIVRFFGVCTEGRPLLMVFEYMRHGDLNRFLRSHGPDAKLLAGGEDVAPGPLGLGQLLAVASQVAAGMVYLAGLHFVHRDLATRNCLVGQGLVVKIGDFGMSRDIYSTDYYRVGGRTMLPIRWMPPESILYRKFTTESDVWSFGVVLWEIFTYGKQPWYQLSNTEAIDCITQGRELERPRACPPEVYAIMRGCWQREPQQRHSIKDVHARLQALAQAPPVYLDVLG

Compound	IC50
COc1cccc([C@@H]2CN(CC(F)(F)F)C[C@H]2NC(=O)Nc2c3c(nn2-c2ccccc2)CCC3)c1 (relative stereo) [Example 207, 1-((trans)-4-(3-methoxyphenyl)-1-(2,2,2-trifluoroethyl)pyrrolidin-3-yl)-3-(2-phenyl-2,4,5,6-tetrahydrocyclopenta[c]pyrazol-3-yl)urea]	100 to 1000 nM
O=C(Nc1c2c(nn1-c1ccccc1)CCC2)N[C@@H]1CN(CC(F)(F)F)C[C@H]1c1cccc(Cl)c1 (relative stereo) [Example 208, 1-((trans)-4-(3-chlorophenyl)-1-(2,2,2-trifluoroethyl)pyrrolidin-3-yl)-3-(2-phenyl-2,4,5,6-tetrahydrocyclopenta[c]pyrazol-3-yl)urea]	100 to 1000 nM
O=C(Nc1c2c(nn1-c1ccccc1)CCC2)N[C@@H]1CN(CC(F)(F)F)C[C@H]1c1ccccn1 (relative stereo) [Example 209, 1-(2-phenyl-2,4,5,6-tetrahydrocyclopenta[c]pyrazol-3-yl)-3-((trans)-4-(pyridin-2-yl)-1-(2,2,2-trifluoroethyl)pyrrolidin-3-yl)urea]	100 to 1000 nM
O=C(Nc1c2c(nn1-c1ccccc1)CCC2)N[C@@H]1CN(CC(F)(F)F)C[C@H]1c1ccc(F)cc1 (relative stereo) [Example 210, 1-((trans)-4-(4-fluorophenyl)-1-(2,2,2-trifluoroethyl)pyrrolidin-3-yl)-3-(2-phenyl-2,4,5,6-tetrahydrocyclopenta[c]pyrazol-3-yl)urea]	< 100 nM
O=C(Nc1c2c(nn1-c1ccccc1)CCC2)N[C@@H]1CN(CC(F)(F)F)C[C@H]1c1ccc(Cl)cc1 (relative stereo) [Example 211, 1-((trans)-4-(4-chlorophenyl)-1-(2,2,2-trifluoroethyl)pyrrolidin-3-yl)-3-(2-phenyl-2,4,5,6-tetrahydrocyclopenta[c]pyrazol-3-yl)urea]	< 100 nM
O=C(Nc1c2c(nn1-c1ccccc1)CCC2)N[C@@H]1CN(CC(F)(F)F)C[C@H]1c1ccccc1Cl (relative stereo) [Example 212, 1-((trans)-4-(2-chlorophenyl)-1-(2,2,2-trifluoroethyl)pyrrolidin-3-yl)-3-(2-phenyl-2,4,5,6-tetrahydrocyclopenta[c]pyrazol-3-yl)urea]	1000 to 10000 nM
O=C(Nc1c2c(nn1-c1ccccc1)CCC2)N[C@@H]1CN(CC(F)(F)F)C[C@H]1c1ccccc1F (relative stereo) [Example 214, 1-((trans)-4-(2-fluorophenyl)-1-(2,2,2-trifluoroethyl)pyrrolidin-3-yl)-3-(2-phenyl-2,4,5,6-tetrahydrocyclopenta[c]pyrazol-3-yl)urea]	< 100 nM
CNCCN1C[C@@H](NC(=O)Nc2c3c(nn2-c2ccccc2)CCC3)[C@H](c2ccc(F)cc2)C1 (relative stereo) [Example 256, 1-((trans)-4-(4-fluorophenyl)-1-(2-(methylamino)ethyl)pyrrolidin-3-yl)-3-(2-phenyl-2,4,5,6-tetrahydrocyclopenta[c]pyrazol-3-yl)urea]	100 to 1000 nM
O=C(Nc1c2c(nn1-c1ccccc1)CCC2)N[C@@H]1CN(Cc2ncc[nH]2)C[C@H]1c1ccccc1 (relative stereo) [Example 257, 1-((trans)-1-((1H-imidazol-2-yl)methyl)-4-phenylpyrrolidin-3-yl)-3-(2-phenyl-2,4,5,6-tetrahydrocyclopenta[c]pyrazol-3-yl)urea]	100 to 1000 nM
COCCN1C[C@@H](NC(=O)Nc2c(C)c(-c3cnn(C)c3)nn2-c2ccccc2)[C@H](c2ccc(F)c(Cl)c2)C1 (relative stereo) [Example 293, 1-(trans-4-(3-chloro-4-fluorophenyl)-1-(2-methoxyethyl)pyrrolidin-3-yl)-3-(1′,4-dimethyl-1-phenyl-1H,1′H-[3,4′-bipyrazol]-5-yl)urea]	< 100 nM
COCCN1C[C@@H](NC(=O)Nc2c(C)c(-c3cnn(C)c3)nn2-c2ccccc2)[C@H](c2ccc(Cl)c(F)c2)C1 (relative stereo) [Example 294, 1-(trans-4-(4-chloro-3-fluorophenyl)-1-(2-methoxyethyl)pyrrolidin-3-yl)-3-(1′,4-dimethyl-1-phenyl-1H,1′H-[3,4′-bipyrazol]-5-yl)urea]	< 100 nM

Now from value to molecule:

IC50	Compound
< 100 nM	COCCN1C[C@@H](NC(=O)Nc2c(C)c(-c3cnn(C)c3)nn2-c2ccccc2)[C@H](c2cc(F)cc(Cl)c2)C1 (relative stereo) [Example 295, 1-(trans-4-(3-chloro-5-fluorophenyl)-1-(2-methoxyethyl)pyrrolidin-3-yl)-3-(1′,4-dimethyl-1-phenyl-1H,1′H-[3,4′-bipyrazol]-5-yl)urea]
< 100 nM	COCCN1C[C@@H](NC(=O)Nc2c(C)c(-c3cnn(C)c3)nn2-c2ccccc2)[C@H](c2cccc(Cl)c2)C1 (relative stereo) [Example 296, 1-(trans-4-(3-chlorophenyl)-1-(2-methoxyethyl)pyrrolidin-3-yl)-3-(1′,4-dimethyl-1-phenyl-1H,1′H-[3,4′-bipyrazol]-5-yl)urea]
< 100 nM	CNC(=O)c1nn(-c2ccccc2)c(NC(=O)N[C@@H]2CN(CCOC)C[C@H]2c2ccc(F)c(Cl)c2)c1C (relative stereo) [Example 301, 5-(3-(trans-4-(3-chloro-4-fluorophenyl)-1-(2-methoxyethyl)pyrrolidin-3-yl)ureido)-N,4-dimethyl-1-phenyl-1H-pyrazole-3-carboxamide]
< 100 nM	CNC(=O)c1nn(-c2ccccc2)c(NC(=O)N[C@@H]2CN(CCOC)C[C@H]2c2ccc(Cl)c(F)c2)c1C (relative stereo) [Example 302, 5-(3-(trans-4-(4-chloro-3-fluorophenyl)-1-(2-methoxyethyl)pyrrolidin-3-yl)ureido)-N,4-dimethyl-1-phenyl-1H-pyrazole-3-carboxamide]
< 100 nM	COCCN1C[C@@H](NC(=O)Nc2c(C)c(-c3ccn(C)c(=O)c3)nn2-c2ccccc2)[C@H](c2ccc(Cl)c(F)c2)C1 (relative stereo) [Example 303, 1-(trans-4-(4-chloro-3-fluorophenyl)-1-(2-methoxyethyl)pyrrolidin-3-yl)-3-(4-methyl-3-(1-methyl-2-oxo-1,2-dihydropyridin-4-yl)-1-phenyl-1H-pyrazol-5-yl)urea]
< 100 nM	COCCN1C[C@@H](NC(=O)Nc2c(C)c(-c3ccn(C)c(=O)c3)nn2-c2ccccc2)[C@H](c2ccc(F)c(Cl)c2)C1 (relative stereo) [Example 304, 1-(trans-4-(3-chloro-4-fluorophenyl)-1-(2-methoxyethyl)pyrrolidin-3-yl)-3-(4-methyl-3-(1-methyl-2-oxo-1,2-dihydropyridin-4-yl)-1-phenyl-1H-pyrazol-5-yl)urea]
100 to 1000 nM	COCCN1C[C@@H](NC(=O)Nc2c(C)c(-c3cnn(C)c3)nn2-c2ccccc2)[C@H](c2cnn(C)c2)C1 (relative stereo) [Example 333, 1-(1′,4-dimethyl-1-phenyl-1H,1'H-[3,4′-bipyrazol]-5-yl)-3-(trans-1-(2-methoxyethyl)-4-(1-methyl-1H-pyrazol-4-yl)pyrrolidin-3-yl)urea]
< 100 nM	CCOc1nn(-c2ccccc2)c(NC(=O)N[C@@H]2CN(CCOC)C[C@H]2c2cccc(C(F)(F)F)c2)c1C (relative stereo) [Example 335, 1-(3-ethoxy-4-methyl-1-phenyl-1H-pyrazol-5-yl)-3-(trans-1-(2-methoxyethyl)-4-(3-(trifluoromethyl)phenyl)pyrrolidin-3-yl)urea]
